We go through 31 molecules from patent publication US20230192703A1, “Polycyclic amide derivative as CDK9 inhibitor, preparation method therefor and use thereof” (Suzhou AlphaMa Biotechnology Co., Ltd., priority 2020, published 2023).

Broadly, the IC50 is the midpoint of a concentration-inhibition curve. A higher IC50 goes with weaker potency in that assay.

For one experiment, the system named is Mv4-11 cells. Put plainly: Inhibition of the proliferation of Mv4-11 cells (CCK8). In kind it is cell-based. The note with it: Mv4-11 cell proliferation, CCK8 OD450. How it is done: The inhibition effect of the compounds of the present disclosure on the proliferation of Mv4-11 cells (ATCC:CRL-9591TM) in vitro was determined by the following method:
Cell inoculation: Mv4-11 cells with good growing state in logarithmic growth phase were inoculated into a 96-well plate at 20000 cells per well and 50 uL, and cultured at 37° C. and under 5% CO2 condition for 2-4 h. Administration: The compound was diluted with 1640 medium containing 10% FBS and 1% PS: 0.4 uL of the compound with an initial concentration of 1 mM was placed in a dilution plate, each added with 199.6 uL of the above culture medium, and gradiently diluted 4-fold, so that the final concentration in the added cell was 1000, 250, 62.5, 15.625, 3.91, 0.98, 0.24, 0.06 nM. 50 μL of the medium containing the compound was sequentially added, and it was placed in a 37° C., 5% CO2 cell incubator for 48 hours.
Detection: 10 uL CCK8 (Dojindo, CK 04) solution was added to each well, incubated in 37° C. 5% CO2 cell incubator for 2 hours, and then the OD450 value was read by Synegry H1 (BioTek) multimode microplate reader.
Calculation: The IC50 value was calculated using Graphpad prism 5.0 software according to the concentration of the compound and the corresponding signal value.

The target of another experiment is T1, CDK9 kinase (Homo sapiens, UniProt P50750).
T1 construct: purchased Millipore 14-685M
Put plainly: Inhibitory effect on the kinase activity of CDK9 in vitro. The format is biochemical. As to conditions: CDK9 kinase (Millipore), CTD3 substrate polypeptide, Caliper. The procedure: The detection of the inhibitory effect of the compounds of the present disclosure on the kinase activity of CDK9 in vitro was determined by the following method:
Compound preparation: The compound was accurately weighed and dissolved in DMSO (Sigma, D2650) to a concentration of 100 um for later use. The compound was diluted to 5-fold of a desired highest concentration, and diluted 4-fold into 6 concentration gradients, allowing the final concentration of the compound in the reaction system to be 100, 25, 6.25, 1.56, 0.39, 0.098 nM. 5 ul was taken to a 384-well plate (Corning, 4512).
Detection: Data was collected by Caliper.
Calculation: The IC50 value was calculated by Graphpad prism 5.0 software according to the concentration of the compound and the corresponding signal value.

Structures are written as SMILES. A value given as a limit tells only on which side of the number the result lay.

T1 sequence (P50750 whole entry): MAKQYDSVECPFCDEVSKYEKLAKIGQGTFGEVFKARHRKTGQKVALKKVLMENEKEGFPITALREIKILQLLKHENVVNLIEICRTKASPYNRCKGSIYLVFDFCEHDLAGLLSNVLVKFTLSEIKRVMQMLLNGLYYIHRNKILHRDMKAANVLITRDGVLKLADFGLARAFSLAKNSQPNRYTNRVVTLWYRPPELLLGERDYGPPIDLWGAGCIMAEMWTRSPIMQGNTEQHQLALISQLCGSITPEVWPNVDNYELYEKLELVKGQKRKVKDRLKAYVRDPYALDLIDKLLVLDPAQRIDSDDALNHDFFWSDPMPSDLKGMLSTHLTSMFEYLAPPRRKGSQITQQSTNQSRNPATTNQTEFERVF
T1 sequence (O60563 whole entry partner): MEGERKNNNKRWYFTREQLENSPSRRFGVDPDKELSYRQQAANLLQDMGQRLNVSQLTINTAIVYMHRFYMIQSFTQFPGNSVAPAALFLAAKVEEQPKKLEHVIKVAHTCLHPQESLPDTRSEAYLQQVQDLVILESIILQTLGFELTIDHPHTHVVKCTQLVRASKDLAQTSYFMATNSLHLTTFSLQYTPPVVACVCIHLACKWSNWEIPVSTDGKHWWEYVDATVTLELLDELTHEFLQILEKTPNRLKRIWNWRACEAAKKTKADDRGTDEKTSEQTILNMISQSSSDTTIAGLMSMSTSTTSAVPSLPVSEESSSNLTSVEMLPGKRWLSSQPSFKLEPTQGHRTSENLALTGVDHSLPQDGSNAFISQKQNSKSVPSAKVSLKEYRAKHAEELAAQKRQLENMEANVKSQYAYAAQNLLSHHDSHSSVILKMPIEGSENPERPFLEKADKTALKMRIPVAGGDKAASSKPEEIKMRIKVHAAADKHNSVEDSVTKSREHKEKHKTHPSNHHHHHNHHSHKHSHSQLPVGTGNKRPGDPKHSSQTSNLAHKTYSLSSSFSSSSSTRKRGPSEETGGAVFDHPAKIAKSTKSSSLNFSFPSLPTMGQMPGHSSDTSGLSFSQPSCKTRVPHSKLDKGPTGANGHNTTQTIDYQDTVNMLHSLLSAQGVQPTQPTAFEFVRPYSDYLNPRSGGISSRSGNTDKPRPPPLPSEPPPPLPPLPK

Regarding `CC(=O)N1C[C@H]2CC(C(=O)Nc3cc(-c4cnn5c4CC(C)(C)C5)c(Cl)cn3)C[C@H]2C1` (single isomer, unassigned) [Compound 4-2], the IC50 came out at 6.8 nM with Mv4-11 cells (Homo sapiens, MV4-11, 48 h) and 2.9 nM at CDK9 kinase.

In the case of `CC(=O)N1C[C@H]2CC(C(=O)Nc3cc(-c4cc(C(N)=O)n5c4CC(C)(C)C5)c(Cl)cn3)C[C@H]2C1` (single isomer, unassigned) [Compound 8-1], the half-inhibitory concentration (IC50) was found to be 7.7 nM with Mv4-11 cells (48 hours) and 3.5 nM against CDK9 kinase.

`CC(=O)N1C[C@H]2CC(C(=O)Nc3cc(-c4cc(C(N)=O)n5c4CC(C)(C)C5)c(Cl)cn3)C[C@H]2C1` (single isomer, unassigned) [Compound 8-2]: the IC50 is 0.4 nM with Mv4-11 cells (48 hours) and 3.1 nM on CDK9 kinase.

Take `CC(=O)N[C@H]1C[C@@H]2C[C@@H](C(=O)Nc3cc(-c4cc(C#N)n5c4CC(C)(C)C5)c(Cl)cn3)C[C@@H]2C1` (single isomer, unassigned) [Compound 14-1-1]: the midpoint of inhibition with Mv4-11 cells (Homo sapiens, MV4-11, 48 h), the IC50, lay at 23.9 nM.

The molecule `CC(=O)N[C@@H]1C[C@@H]2C[C@@H](C(=O)Nc3cc(-c4cc(C#N)n5c4CC(C)(C)C5)c(Cl)cn3)C[C@@H]2C1` (single isomer, unassigned) [Compound 14-1-2] came in with an IC50 in the experiment with Mv4-11 cells (Homo sapiens, MV4-11, 48 h) of 11.1 nM.

On to `CC(=O)N[C@H]1C[C@@H]2C[C@H](C(=O)Nc3cc(-c4cc(C#N)n5c4CC(C)(C)C5)c(Cl)cn3)C[C@@H]2C1` (single isomer, unassigned) [Compound 14-2-1], for which the IC50 in the experiment on Mv4-11 cells (Homo sapiens, MV4-11, 48 h) was found to be 10.6 nM; at CDK9 kinase it was 4.3 nM.

Regarding `CC(=O)N[C@@H]1C[C@@H]2C[C@H](C(=O)Nc3cc(-c4cc(C#N)n5c4CC(C)(C)C5)c(Cl)cn3)C[C@@H]2C1` (single isomer, unassigned) [Compound 14-2-2], the IC50 in the experiment with Mv4-11 cells (Homo sapiens, MV4-11, 48 h) was 44.6 nM; against CDK9 kinase, 10.4 nM.

As for `CC(=O)N1CC[C@@]2(CC[C@H](C(=O)Nc3cc(-c4cnn5c4CC(C)(C)C5)c(Cl)cn3)C2)C1` (single isomer, unassigned) [Compound 18-1], the IC50 with Mv4-11 cells (Homo sapiens, MV4-11, 48 h) came out at 1.4 nM; against CDK9 kinase, 3.2 nM.

For the molecule `CC(=O)N1CC[C@@]2(CC[C@@H](C(=O)Nc3cc(-c4cnn5c4CC(C)(C)C5)c(Cl)cn3)C2)C1` (single isomer, unassigned) [Compound 19-1], the IC50 with Mv4-11 cells (Homo sapiens, MV4-11, 48 h) was determined as 12.2 nM; at CDK9 kinase, 5.5 nM.

Consider `CC(=O)N1CC[C@]2(CC[C@H](C(=O)Nc3cc(-c4cnn5c4CC(C)(C)C5)c(Cl)cn3)C2)C1` (single isomer, unassigned) [Compound 19-2], for which inhibition in the experiment with Mv4-11 cells (Homo sapiens, MV4-11, 48 h) was half-maximal at 84.2 nM (IC50).

As for `CC1(C)Cc2c(-c3cc(NC(=O)[C@H]4CCC[C@H](c5cccnc5)C4)ncc3Cl)cnn2C1` (single isomer, unassigned) [Compound 20-1], the IC50 in the experiment with Mv4-11 cells (Homo sapiens, MV4-11, 48 h) came out at 352 nM; at CDK9 kinase, 28.6 nM.

For `CC1(C)Cc2c(-c3cc(NC(=O)[C@@H]4CCC[C@H](c5cccnc5)C4)ncc3Cl)cnn2C1` (single isomer, unassigned) [Compound 20-2], the IC50 with Mv4-11 cells (Homo sapiens, MV4-11, 48 h) was found to be 15 nM; at CDK9 kinase it was 7 nM.

As to `CC1(C)Cc2c(-c3cc(NC(=O)[C@H]4CCC[C@@H](c5cccnc5)C4)ncc3Cl)cnn2C1` (single isomer, unassigned) [Compound 20-3], the 50% inhibitory concentration (IC50) with Mv4-11 cells (Homo sapiens, MV4-11, 48 h) is greater than 1000 nM; on CDK9 kinase it was greater than 100 nM.

Take `CC1(C)Cc2c(-c3cc(NC(=O)[C@@H]4CCC[C@@H](c5cccnc5)C4)ncc3Cl)cnn2C1` (single isomer, unassigned) [Compound 20-4]: the IC50 is 0.5 nM with Mv4-11 cells (Homo sapiens, MV4-11, 48 h) and 2.8 nM against CDK9 kinase.

As for `CC1(C)Cc2c(-c3cc(NC(=O)[C@H]4CCC[C@H](c5ccncc5)C4)ncc3Cl)cnn2C1` (single isomer, unassigned) [Compound 21-1], it took 68.5 nM to reach half-maximal inhibition with Mv4-11 cells (Homo sapiens, MV4-11, 48 h) (IC50).

`CC1(C)Cc2c(-c3cc(NC(=O)[C@@H]4CCC[C@H](c5ccncc5)C4)ncc3Cl)cnn2C1` (single isomer, unassigned) [Compound 21-2] had an IC50 with Mv4-11 cells (Homo sapiens, MV4-11, 48 h) of 16.2 nM.

Regarding `CC1(C)Cc2c(-c3cc(NC(=O)[C@H]4CCC[C@@H](c5ccncc5)C4)ncc3Cl)cnn2C1` (single isomer, unassigned) [Compound 21-3], the IC50 in the experiment on Mv4-11 cells (Homo sapiens, MV4-11, 48 h) stood at 6.3 nM; against CDK9 kinase it was 2.8 nM.

The molecule `CC1(C)Cc2c(-c3cc(NC(=O)[C@@H]4CCC[C@@H](c5ccncc5)C4)ncc3Cl)cnn2C1` (single isomer, unassigned) [Compound 21-4] gave an IC50 in the experiment on Mv4-11 cells (Homo sapiens, MV4-11, 48 h) of 71.9 nM.

`Cn1cc([C@@H]2CCC[C@H](C(=O)Nc3cc(-c4cnn5c4CC(C)(C)C5)c(Cl)cn3)C2)cn1` (single isomer, unassigned) [Compound 23-1]: the concentration for half-maximal inhibition (IC50) in the experiment with Mv4-11 cells (Homo sapiens, MV4-11, 48 h) was 7.9 nM; at CDK9 kinase, 3.8 nM.

On to `CC(=O)N[C@H]1C[C@@H]2C[C@@H](C(=O)Nc3cc(-c4cc(C(N)=O)n5c4CC(C)(C)C5)c(Cl)cn3)C[C@@H]2C1` (single isomer, unassigned) [Compound 24-1], for which the IC50 with Mv4-11 cells (Homo sapiens, MV4-11, 48 h) was 5.9 nM; against CDK9 kinase it was 3.8 nM.

As to `CNC(=O)C1C[C@@H]2CC(C(=O)Nc3cc(-c4cc(C(N)=O)n5c4CC(C)(C)C5)c(Cl)cn3)C[C@@H]2C1` (single isomer, unassigned) [Compound 26-1], the IC50 was 4.1 nM in the experiment on Mv4-11 cells (Homo sapiens, MV4-11, 48 h) and 2.9 nM against CDK9 kinase.

As for `CNC(=O)C1C[C@@H]2CC(C(=O)Nc3cc(-c4cc(C(N)=O)n5c4CC(C)(C)C5)c(Cl)cn3)C[C@@H]2C1` (single isomer, unassigned) [Compound 26-2], the IC50 came to 5.1 nM with Mv4-11 cells (48 hours) and 3.5 nM against CDK9 kinase.

Turning to `CC(=O)N[C@@H]1CCC[C@H](C(=O)Nc2cc(-c3cnn4c3CC(C)(C)C4)c(Cl)cn2)C1` [AZD4573, reference compound], the concentration for half-maximal inhibition (IC50) in the experiment on Mv4-11 cells (Homo sapiens, MV4-11, 48 h) turned out to be 4.2 nM.

Turning to `CC(=O)N1C[C@H]2C[C@H](C(=O)Nc3cc(-c4cnn5c4CC(C)(C)C5)c(Cl)cn3)C[C@H]2C1` [Compound 4-1, (3aR,5s,6aS)-2-acetyl-N-(5-chloro-4-(5,5-dimethyl-5,6-dihydro-4H-pyrrolo[1,2-b]pyrazol-3-yl)pyridin-2-yl)octahydrocyclopenta[c]pyrrole-5-carboxamide], half-maximal inhibition in the experiment with Mv4-11 cells (Homo sapiens, MV4-11, 48 h) (IC50) was put at 14.8 nM.

As to `CC(=O)N1C[C@H]2C[C@@H](C(=O)Nc3cc(-c4cc(C#N)n5c4CC(C)(C)C5)c(Cl)cn3)C[C@H]2C1` [Compound 7-2, (3aR,5r,6aS)-2-acetyl-N-(5-chloro-4-(5-cyano-2,2-dimethyl-2,3-dihydro-1H-pyrrolizin-7-yl)pyridin-2-yl)octahydrocyclopenta[c]pyrrole-5-carboxamide], it took 8.6 nM to reach half-maximal inhibition in the experiment with Mv4-11 cells (Homo sapiens, MV4-11, 48 h) (IC50).

As to `CC(=O)N[C@@H]1CCC[C@H](C(=O)Nc2cc(-c3cc(C#N)n4c3CC(C)(C)C4)c(F)cn2)C1` [Compound 10, (1S,3R)-3-acetamido-N-(4-(5-cyano-2,2-dimethyl-2,3-dihydro-1H-pyrrolizin-7-yl)-5-fluoropyridin-2-yl)cyclohexane-1-carboxamide], the IC50 with Mv4-11 cells (Homo sapiens, MV4-11, 48 h) was found to be 26.9 nM.

In the experiment with Mv4-11 cells (Homo sapiens, MV4-11, 48 h), `CC(=O)N[C@@H]1CCC[C@H](C(=O)Nc2cc(-c3cc(C#N)n4c3CC(C)(C)C4)ccn2)C1` [Compound 11, (1S,3R)-3-acetamido-N-(4-(5-cyano-2,2-dimethyl-2,3-dihydro-1H-pyrrolizin-7-yl)pyridin-2-yl)cyclohexane-1-carboxamide] showed an IC50 of 2.2 nM.

Consider `CC(=O)N[C@@H]1CCC[C@H](C(=O)Nc2cc(-c3cc(C#N)c4n3CC(C)(C)C4)c(Cl)cn2)C1` [Compound 16, (1S,3R)-3-acetamido-N-(5-chloro-4-(7-cyano-2,2-dimethyl-2,3-dihydro-1H-pyrrolizin-5-yl)pyridin-2-yl)cyclohexane-1-carboxamide], for which the half-inhibitory concentration (IC50) at CDK9 kinase was determined as 2.9 nM.

In the experiment with Mv4-11 cells (Homo sapiens, MV4-11, 48 h), `CC(=O)N[C@@H]1CCC[C@H](C(=O)Nc2cc(-c3cc(C(N)=O)c4n3CC(C)(C)C4)ccn2)C1` [Compound 28, 5-(2-((1S,3R)-3-acetylaminocyclohexane-1-carboxamido)pyridin-4-yl)-2,2-dimethyl-2,3-dihydro-1H-pyrrolizine-7-carboxamide] gave an IC50 of 36.5 nM.

For the molecule `CC(=O)N[C@@H]1CCC[C@H](C(=O)Nc2cc(-c3cc(C(N)=O)n4c3CC(C)(C)C4)c(F)cn2)C1` [Compound 33, 7-(2-((1S,3R)-3-acetylaminocyclohexane-1-carboxamido)-5-fluoropyridin-4-yl)-2,2-dimethyl-2,3-dihydro-1H-pyrrolizine-5-carboxamide], in the experiment with Mv4-11 cells (Homo sapiens, MV4-11, 48 h), half-maximal inhibition (IC50) required 1.3 nM.

In the case of `CC(=O)N[C@@H]1C[C@@H]2C[C@H](C(=O)Nc3cc(-c4cc(C(N)=O)n5c4CC(C)(C)C5)c(F)cn3)C[C@@H]2C1` [Compound 34-2, 7-(2-((2s,3aR,5r,6aS)-5-acetylaminooctahydropentalene-2-carboxamido)-5-fluoropyridin-4-yl)-2,2-dimethyl-2,3-dihydro-1H-pyrrolizine-5-carboxamide], the IC50 in the experiment with Mv4-11 cells (Homo sapiens, MV4-11, 48 h) came out at 9 nM.
